Measurements reported in patent US9340590B2 (priority 2011, dated 2016).
Positions of bridges follow the written chain, without caps; N, C: chain ends. Residues, ends and D or L forms follow the SMILES beside them.

Assays:
Assay in all cases: cell-based
hNav1.7 = hNav1.7 (Homo sapiens, UniProt Q15858); format: cell-based; conditions: Table 22; IonWorks Quattro, use; […]; read-out: IWQ Use Nav1.7
hNav1.5 = hNav1.5 (Homo sapiens, UniProt Q14524); conditions: Table 22; IonWorks Quattro, use; […]; read-out: IWQ Use Nav1.5
hNav1.3 = hNav1.3 (Homo sapiens, UniProt Q9NY46); conditions: Table 22; IonWorks Quattro, use; […]; read-out: IWQ Use Nav1.3

hNav1.5, sequence (Q14524 whole entry, looked up): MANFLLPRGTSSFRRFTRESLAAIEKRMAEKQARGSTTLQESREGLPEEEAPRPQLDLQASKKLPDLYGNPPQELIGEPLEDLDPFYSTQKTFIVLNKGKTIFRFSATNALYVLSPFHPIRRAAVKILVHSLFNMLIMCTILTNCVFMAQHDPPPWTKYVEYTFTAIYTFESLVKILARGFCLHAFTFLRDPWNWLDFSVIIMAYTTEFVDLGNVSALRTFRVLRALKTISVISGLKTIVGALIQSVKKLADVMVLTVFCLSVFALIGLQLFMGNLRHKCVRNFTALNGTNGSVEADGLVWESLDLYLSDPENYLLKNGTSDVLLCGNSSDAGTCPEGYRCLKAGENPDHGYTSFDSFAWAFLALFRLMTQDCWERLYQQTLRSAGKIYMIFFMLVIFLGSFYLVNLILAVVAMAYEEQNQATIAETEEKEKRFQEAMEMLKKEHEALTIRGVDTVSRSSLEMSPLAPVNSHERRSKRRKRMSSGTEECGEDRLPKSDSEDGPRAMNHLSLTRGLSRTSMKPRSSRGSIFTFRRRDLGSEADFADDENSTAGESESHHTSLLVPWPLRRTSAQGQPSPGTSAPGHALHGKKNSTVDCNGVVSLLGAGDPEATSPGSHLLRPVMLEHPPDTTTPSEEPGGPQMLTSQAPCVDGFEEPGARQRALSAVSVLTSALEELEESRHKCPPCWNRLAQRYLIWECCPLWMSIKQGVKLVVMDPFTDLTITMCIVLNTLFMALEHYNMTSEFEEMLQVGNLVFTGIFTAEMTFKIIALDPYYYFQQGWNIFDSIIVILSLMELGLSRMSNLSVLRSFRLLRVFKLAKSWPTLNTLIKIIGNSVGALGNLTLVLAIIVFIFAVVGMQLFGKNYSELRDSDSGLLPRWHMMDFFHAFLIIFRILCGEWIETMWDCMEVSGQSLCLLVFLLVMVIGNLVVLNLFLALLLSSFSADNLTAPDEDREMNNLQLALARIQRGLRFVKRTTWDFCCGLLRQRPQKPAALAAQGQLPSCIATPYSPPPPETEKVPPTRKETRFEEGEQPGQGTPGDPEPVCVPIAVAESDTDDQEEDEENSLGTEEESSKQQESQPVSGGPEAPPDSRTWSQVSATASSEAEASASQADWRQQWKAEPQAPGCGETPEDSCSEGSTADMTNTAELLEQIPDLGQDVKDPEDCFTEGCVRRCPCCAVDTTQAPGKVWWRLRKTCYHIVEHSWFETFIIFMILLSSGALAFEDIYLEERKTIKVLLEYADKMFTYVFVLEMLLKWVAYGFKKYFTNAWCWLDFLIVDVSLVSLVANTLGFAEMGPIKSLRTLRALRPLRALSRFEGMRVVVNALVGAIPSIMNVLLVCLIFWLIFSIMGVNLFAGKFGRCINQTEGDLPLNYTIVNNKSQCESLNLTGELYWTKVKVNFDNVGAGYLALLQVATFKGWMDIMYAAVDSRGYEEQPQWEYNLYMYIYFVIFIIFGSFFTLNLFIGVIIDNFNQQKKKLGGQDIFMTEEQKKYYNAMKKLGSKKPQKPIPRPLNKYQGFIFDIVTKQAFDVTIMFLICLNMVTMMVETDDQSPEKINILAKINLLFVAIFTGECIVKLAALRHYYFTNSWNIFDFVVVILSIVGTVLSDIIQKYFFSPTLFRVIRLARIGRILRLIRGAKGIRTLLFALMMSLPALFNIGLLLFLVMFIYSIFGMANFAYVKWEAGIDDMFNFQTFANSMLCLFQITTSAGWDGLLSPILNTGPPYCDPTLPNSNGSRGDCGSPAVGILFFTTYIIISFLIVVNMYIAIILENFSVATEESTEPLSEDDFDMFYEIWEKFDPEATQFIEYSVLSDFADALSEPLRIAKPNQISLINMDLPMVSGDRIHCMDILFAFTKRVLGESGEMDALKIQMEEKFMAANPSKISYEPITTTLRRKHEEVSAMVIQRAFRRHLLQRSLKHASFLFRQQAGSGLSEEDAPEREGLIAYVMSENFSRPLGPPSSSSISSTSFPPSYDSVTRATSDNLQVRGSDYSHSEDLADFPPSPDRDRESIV
hNav1.7, sequence (Q15858 whole entry, looked up): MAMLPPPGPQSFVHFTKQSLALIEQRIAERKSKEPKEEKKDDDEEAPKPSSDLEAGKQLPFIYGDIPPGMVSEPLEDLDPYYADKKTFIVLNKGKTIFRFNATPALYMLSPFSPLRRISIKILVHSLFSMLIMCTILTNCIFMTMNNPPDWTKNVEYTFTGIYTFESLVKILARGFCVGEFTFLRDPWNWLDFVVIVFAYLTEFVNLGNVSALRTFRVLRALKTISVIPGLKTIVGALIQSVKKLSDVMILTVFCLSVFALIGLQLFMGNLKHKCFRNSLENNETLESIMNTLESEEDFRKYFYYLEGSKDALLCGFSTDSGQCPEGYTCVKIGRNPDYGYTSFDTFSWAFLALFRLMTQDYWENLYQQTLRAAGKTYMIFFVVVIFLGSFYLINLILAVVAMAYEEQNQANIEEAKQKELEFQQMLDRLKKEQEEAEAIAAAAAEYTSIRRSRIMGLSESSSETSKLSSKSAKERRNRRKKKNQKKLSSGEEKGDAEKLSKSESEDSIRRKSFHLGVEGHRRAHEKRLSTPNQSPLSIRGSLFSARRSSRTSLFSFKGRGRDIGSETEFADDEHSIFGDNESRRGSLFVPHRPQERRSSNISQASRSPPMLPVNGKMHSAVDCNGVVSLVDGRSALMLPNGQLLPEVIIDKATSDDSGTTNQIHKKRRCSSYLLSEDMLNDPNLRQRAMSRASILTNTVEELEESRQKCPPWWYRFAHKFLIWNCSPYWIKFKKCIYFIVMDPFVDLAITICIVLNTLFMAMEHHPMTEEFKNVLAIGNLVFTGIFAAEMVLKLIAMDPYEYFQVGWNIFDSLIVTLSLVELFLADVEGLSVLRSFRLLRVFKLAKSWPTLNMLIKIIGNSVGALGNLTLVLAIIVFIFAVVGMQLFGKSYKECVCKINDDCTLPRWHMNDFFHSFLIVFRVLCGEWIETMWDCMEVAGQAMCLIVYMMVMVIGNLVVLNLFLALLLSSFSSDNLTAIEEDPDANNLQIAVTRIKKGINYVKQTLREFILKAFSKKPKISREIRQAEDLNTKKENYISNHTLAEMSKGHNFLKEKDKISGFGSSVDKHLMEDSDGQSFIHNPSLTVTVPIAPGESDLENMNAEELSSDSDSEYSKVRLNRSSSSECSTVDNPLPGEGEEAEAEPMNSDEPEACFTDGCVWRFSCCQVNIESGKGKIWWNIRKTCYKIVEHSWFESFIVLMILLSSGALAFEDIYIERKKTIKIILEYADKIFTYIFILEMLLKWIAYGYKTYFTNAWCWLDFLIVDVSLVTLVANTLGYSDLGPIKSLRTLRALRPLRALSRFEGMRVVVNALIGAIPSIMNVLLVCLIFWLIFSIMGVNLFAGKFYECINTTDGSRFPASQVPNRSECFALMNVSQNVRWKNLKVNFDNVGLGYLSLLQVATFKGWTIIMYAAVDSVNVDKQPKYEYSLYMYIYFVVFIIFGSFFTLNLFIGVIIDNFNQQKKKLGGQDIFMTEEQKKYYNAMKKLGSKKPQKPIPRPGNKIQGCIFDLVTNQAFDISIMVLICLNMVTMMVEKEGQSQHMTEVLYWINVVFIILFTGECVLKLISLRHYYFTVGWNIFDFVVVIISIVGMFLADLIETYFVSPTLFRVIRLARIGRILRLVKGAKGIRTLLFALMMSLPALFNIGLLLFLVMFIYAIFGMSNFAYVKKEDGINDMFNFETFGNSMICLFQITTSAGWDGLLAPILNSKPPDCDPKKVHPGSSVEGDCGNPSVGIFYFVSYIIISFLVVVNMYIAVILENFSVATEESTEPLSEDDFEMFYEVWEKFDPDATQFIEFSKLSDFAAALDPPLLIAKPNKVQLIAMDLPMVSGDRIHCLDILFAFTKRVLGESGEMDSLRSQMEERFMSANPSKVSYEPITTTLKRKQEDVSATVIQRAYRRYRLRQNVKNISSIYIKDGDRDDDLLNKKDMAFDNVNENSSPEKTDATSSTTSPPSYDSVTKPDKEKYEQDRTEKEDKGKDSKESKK

| Structure (SMILES) | IC50 (hNav1.7) [nM] | IC50 (hNav1.5) [nM] | IC50 (hNav1.3) [nM] |
| --- | --- | --- | --- |
| CC[C@H](C)[C@@H]1NC(=O)[C@@H]2CSSC[C@@H]3NC(=O)[C@H](C(C)C)NC(=O)[C@H](CC(C)C)NC(=O)[C@H](CC(N)=O)NC(=O)[C@@H]4CCCN4C(=O)[C@H](CCCNC(=N)N)NC(=O)[C@H](CSSC[C@H](NC(=O)[C@@H](N)CC(=O)O)C(=O)N[C@@H](CC(C)C)C(=O)NCC(=O)N[C@@H](Cc4ccccc4)C(=O)N[C@@H](CCSC)C(=O)N[C@@H](CCCNC(=N)N)C(=O)N[C@@H](CCCCN)C(=O)N2)NC(=O)[C@H](CSSC[C@@H](C(=O)N[C@@H](CCCCN)C(=O)N[C@@H](Cc2ccc(O)cc2)C(=O)N[C@H](C(=O)N[C@@H](Cc2ccccc2)C(N)=O)C(C)C)NC(=O)[C@H](Cc2c[nH]c4ccccc24)NC(=O)[C@H](CCCCN)NC(=O)[C@H](Cc2c[nH]cn2)NC(=O)[C@H](CO)NC(=O)[C@H](CCCNC(=N)N)NC(=O)[C@H](CO)NC3=O)NC(=O)[C@H](CCCCN)NC(=O)[C@H](CC(=O)O)NC(=O)[C@H](CC(N)=O)NC(=O)[C@H](CC(=O)O)NC(=O)[C@@H]2CCCN2C1=O [compound 338] (H-DCLGFMRKCIPDNDKCCRPNLVCSRSHKWCKYVF-NH2; disulfide 2-17, 9-23, 16-30) | 100 | 12300 | 90 |
| CC[C@H](C)[C@@H]1NC(=O)[C@@H]2CSSC[C@@H]3NC(=O)[C@H](C(C)C)NC(=O)[C@H](CC(C)C)NC(=O)[C@H](CC(N)=O)NC(=O)[C@@H]4CCCN4C(=O)[C@H](CCCNC(=N)N)NC(=O)[C@H](CSSC[C@H](NC(=O)[C@@H](N)CC(=O)O)C(=O)N[C@@H](CC(C)C)C(=O)NCC(=O)N[C@@H](Cc4ccccc4)C(=O)N[C@@H](CCSC)C(=O)N[C@@H](CCCNC(=N)N)C(=O)N[C@@H](CCCCN)C(=O)N2)NC(=O)[C@H](CSSC[C@@H](C(=O)N[C@@H](CCCCN)C(=O)N[C@@H](Cc2ccc(O)cc2)C(=O)N[C@H](C(=O)N[C@@H](Cc2ccccc2)C(N)=O)C(C)C)NC(=O)[C@H](Cc2c[nH]c4ccccc24)NC(=O)[C@H](CCCCN)NC(=O)[C@H](Cc2c[nH]cn2)NC(=O)[C@H](CCC(N)=O)NC(=O)[C@H](CCCNC(=N)N)NC(=O)[C@H](CO)NC3=O)NC(=O)[C@H](CCCCN)NC(=O)[C@H](CC(=O)O)NC(=O)[C@H](CC(N)=O)NC(=O)[C@H](CC(=O)O)NC(=O)[C@@H]2CCCN2C1=O [compound 339] (H-DCLGFMRKCIPDNDKCCRPNLVCSRQHKWCKYVF-NH2; disulfide 2-17, 9-23, 16-30) | 140 | 17900 | 90 |
| CC[C@H](C)[C@@H]1NC(=O)[C@@H]2CSSC[C@@H]3NC(=O)[C@H](C(C)C)NC(=O)[C@H](CC(C)C)NC(=O)[C@H](CC(N)=O)NC(=O)[C@@H]4CCCN4C(=O)[C@H](CCCNC(=N)N)NC(=O)[C@H](CSSC[C@H](NC(=O)[C@@H](N)CC(=O)O)C(=O)N[C@@H](CC(C)C)C(=O)NCC(=O)N[C@@H](Cc4ccccc4)C(=O)N[C@@H](CCSC)C(=O)N[C@@H](CCCNC(=N)N)C(=O)N[C@@H](CCCCN)C(=O)N2)NC(=O)[C@H](CSSC[C@@H](C(=O)N[C@@H](CCCCN)C(=O)N[C@@H](Cc2ccc(O)cc2)C(=O)N[C@H](C(=O)N[C@@H](Cc2ccccc2)C(N)=O)C(C)C)NC(=O)[C@H](Cc2c[nH]c4ccccc24)NC(=O)[C@H](CCCCN)NC(=O)[C@H](Cc2c[nH]cn2)NC(=O)[C@H](Cc2ccc(O)cc2)NC(=O)[C@H](CCCNC(=N)N)NC(=O)[C@H](CO)NC3=O)NC(=O)[C@H](CCCCN)NC(=O)[C@H](CC(=O)O)NC(=O)[C@H](CC(N)=O)NC(=O)[C@H](CC(=O)O)NC(=O)[C@@H]2CCCN2C1=O [compound 340] (H-DCLGFMRKCIPDNDKCCRPNLVCSRYHKWCKYVF-NH2; disulfide 2-17, 9-23, 16-30) | 80 | 5510 | 60 |
| CC[C@H](C)[C@@H]1NC(=O)[C@@H]2CSSC[C@@H]3NC(=O)[C@H](C(C)C)NC(=O)[C@H](CC(C)C)NC(=O)[C@H](CC(N)=O)NC(=O)[C@@H]4CCCN4C(=O)[C@H](CCCNC(=N)N)NC(=O)[C@H](CSSC[C@H](NC(=O)[C@@H](N)CC(=O)O)C(=O)N[C@@H](CC(C)C)C(=O)NCC(=O)N[C@@H](Cc4ccccc4)C(=O)N[C@@H](CCSC)C(=O)N[C@@H](CCCNC(=N)N)C(=O)N[C@@H](CCCCN)C(=O)N2)NC(=O)[C@H](CSSC[C@@H](C(=O)N[C@@H](CCCCN)C(=O)N[C@@H](Cc2ccc(O)cc2)C(=O)N[C@H](C(=O)N[C@@H](Cc2ccccc2)C(N)=O)C(C)C)NC(=O)[C@H](Cc2c[nH]c4ccccc24)NC(=O)[C@H](CCCCN)NC(=O)[C@H](Cc2c[nH]cn2)NC(=O)[C@H](Cc2ccccc2)NC(=O)[C@H](CCCNC(=N)N)NC(=O)[C@H](CO)NC3=O)NC(=O)[C@H](CCCCN)NC(=O)[C@H](CC(=O)O)NC(=O)[C@H](CC(N)=O)NC(=O)[C@H](CC(=O)O)NC(=O)[C@@H]2CCCN2C1=O [compound 341] (H-DCLGFMRKCIPDNDKCCRPNLVCSRFHKWCKYVF-NH2; disulfide 2-17, 9-23, 16-30) | 80 | 5880 | 100 |
| CC[C@H](C)[C@@H]1NC(=O)[C@@H]2CSSC[C@@H]3NC(=O)[C@H](C(C)C)NC(=O)[C@H](CC(C)C)NC(=O)[C@H](CC(N)=O)NC(=O)[C@@H]4CCCN4C(=O)[C@H](CCCNC(=N)N)NC(=O)[C@H](CSSC[C@H](NC(=O)[C@@H](N)CC(=O)O)C(=O)N[C@@H](CC(C)C)C(=O)NCC(=O)N[C@@H](Cc4ccccc4)C(=O)N[C@@H](CCSC)C(=O)N[C@@H](CCCNC(=N)N)C(=O)N[C@@H](CCCCN)C(=O)N2)NC(=O)[C@H](CSSC[C@@H](C(=O)N[C@@H](CCCCN)C(=O)N[C@@H](Cc2ccc(O)cc2)C(=O)N[C@H](C(=O)N[C@@H](Cc2ccccc2)C(N)=O)C(C)C)NC(=O)[C@H](Cc2c[nH]c4ccccc24)NC(=O)[C@H](CCCCN)NC(=O)[C@H](Cc2c[nH]cn2)NC(=O)[C@H](CC(N)=O)NC(=O)[C@H](CCCNC(=N)N)NC(=O)[C@H](CO)NC3=O)NC(=O)[C@H](CCCCN)NC(=O)[C@H](CC(=O)O)NC(=O)[C@H](CC(N)=O)NC(=O)[C@H](CC(=O)O)NC(=O)[C@@H]2CCCN2C1=O [compound 342] (H-DCLGFMRKCIPDNDKCCRPNLVCSRNHKWCKYVF-NH2; disulfide 2-17, 9-23, 16-30) | 90 | 6290 | 100 |
| CC[C@H](C)[C@@H]1NC(=O)[C@@H]2CSSC[C@@H]3NC(=O)[C@H](C(C)C)NC(=O)[C@H](CC(C)C)NC(=O)[C@H](CC(N)=O)NC(=O)[C@@H]4CCCN4C(=O)[C@H](CCCNC(=N)N)NC(=O)[C@H](CSSC[C@H](NC(=O)[C@@H](N)CC(=O)O)C(=O)N[C@@H](CC(C)C)C(=O)NCC(=O)N[C@@H](Cc4ccccc4)C(=O)N[C@@H](CCSC)C(=O)N[C@@H](CCCNC(=N)N)C(=O)N[C@@H](CCCCN)C(=O)N2)NC(=O)[C@H](CSSC[C@@H](C(=O)N[C@@H](CCCCN)C(=O)N[C@@H](Cc2ccc(O)cc2)C(=O)N[C@H](C(=O)N[C@@H](Cc2ccccc2)C(N)=O)C(C)C)NC(=O)[C@H](Cc2c[nH]c4ccccc24)NC(=O)[C@H](CCCCN)NC(=O)[C@H](Cc2c[nH]cn2)NC(=O)CNC(=O)[C@H](CCCNC(=N)N)NC(=O)[C@H](CO)NC3=O)NC(=O)[C@H](CCCCN)NC(=O)[C@H](CC(=O)O)NC(=O)[C@H](CC(N)=O)NC(=O)[C@H](CC(=O)O)NC(=O)[C@@H]2CCCN2C1=O [compound 343] (H-DCLGFMRKCIPDNDKCCRPNLVCSRGHKWCKYVF-NH2; disulfide 2-17, 9-23, 16-30) | 100 | 4070 | 90 |
